Test results published in US4501733A, “Polypeptides, a process for their preparation, their use, and a _process for the purification of polypeptides” (Ferring Arzneimittel GmbH, priority 1982, dated 1985).
Square brackets hold non-standard residues; d marks the D form. Peptide text beside a SMILES is read from it. * marks the point of attachment. Propionyl = CCC(=O)*

Tests used:
ileum from guinea pigs = test: Inhibition of SP- or Nle-SP-induced contraction of isolated guinea pig ileum (organ bath, isotonic measurement); details: for relative antagonistic potency (comparison of the antagonists): agonist 10^-8 M; for relative antagonistic potency (comparison of the antagonists) / Percentage inhibiting action: antagonist 10^-5 M; for Percentage inhibiting action: agonist SP or Nle-SP 10^-8 M, guinea pig ileum contraction; for substance P-antagonizing action: antagonist used in a concentration of 10^-5 M, agonist SP or Nle-SP
Description: The ileum from guinea pigs was cut out after the animals had been sacrificed, was substantially freed from mesenteria by pulling at the caudal end and was freed from digestion products with Tyrode's solution. About 25 cm were discarded from the caudal end, and several sections of intestine 4 cm long were then removed and stored in Tyrode's solution. The Tyrode's solution was gassed with carbogen (95% of O2 and 5% of CO2). The Tyrode's solution contained the following substances per liter: 8 g of NaCl; […]; 1.3 g of CaCl2.2H2 O; 2.1 g of MgCl2.6H2 O; […]; 0.58 g of NaH2 PO4.1H2 O; and 11 g of D(+)-glucose.
The Tyrode's solution was thermostatically controlled at 38° C. in an organ bath. Each preparation retained its complete contractility for 4 to 7 hours. 4 cm sections of intestine were tied on both sides and suspended in the organ bath. The contractions of the preparation were recorded under isotonic measurement conditions via a lever on a Kymograph drum. The writing was done by a felt-tip pen arranged as a lateral pen. The load arm was 225 mm and the power arm 20 mm long. The pre-load was about 0.3 g and the paper speed was 5 mm/minute. The organ bath contained 10 ml.
As a rule, the test substances were added in volumes of 2 to 100 μl, and were distributed instantaneously in the organ bath by the gassing. All the test substances added were dissolved in Tyrode's solution or diluted with Tyrode's solution from a stock solution.
Test substances: substance P (Serva) or norleucine-SP (Ferring, Kiel) were used as agonists, in doses of between 10^-9 and 10^-7 M. The following compounds were tested as potential antagonists:
In the standard test, SP or Nle-SP was applied in a concentration of between 10^-9 and 10^-7 M, and was washed out after about 2 minutes. After a latency period of a further 3 minutes, the potential antagonist was applied in a concentration of 3×10^-6, 10^-5 or 3.3×10^-5 M, directly followed by a further dose of SP (Nle-SP). After renewed washing out and a waiting time of 3 minutes, SP (Nle-SP) was again applied in the same dose, in order to investigate whether the original contraction strength is reached.
The reduction in the relative contraction of the ileum preparations as a result of using SP analogs was regarded as a measure of the relative activity as antagonists.

ileum in guinea pigs = details: Folkers et al. 1981; Rosell et al. 1981; cited from earlier work
SP-induced salivation = details: Folkers et al. 1981; Rosell et al. 1981; cited from earlier work
vasodilation = details: Folkers et al. 1981; Rosell et al. 1981; cited from earlier work

Compound | relative antagonistic potency (comparison of the antagonists) (ileum from guinea pigs) | Percentage inhibiting action (ileum from guinea pigs) [%] | substance P-antagonizing action (ileum from guinea pigs) | inhibition of the contraction of the ileum in guinea pigs caused by SP (ileum in guinea pigs) | inhibition of SP-induced salivation (SP-induced salivation) | inhibition of vasodilation caused by antidromic nerve stimulation and SP-induced vasodilation (vasodilation)
CSCC[C@H](NC(=O)[C@H](CC(C)C)NC(=O)[C@@H](Cc1c[nH]c2ccccc12)NC(=O)[C@H](Cc1ccccc1)NC(=O)[C@@H](Cc1c[nH]c2ccccc12)NC(=O)[C@H](CCC(N)=O)NC(=O)[C@@H](N)CCCNC(=N)N)C(N)=O [compound 2, H-Arg-Gln-D-Trp-Phe-D-Trp-Leu-Met-NH2] (H-RQ[dW]F[dW]LM-NH2) | most powerful action | 68.1 ± 8 | substance P-antagonizing action |  |  | 
CSCC[C@H](NC(=O)[C@H](CC(C)C)NC(=O)[C@@H](Cc1c[nH]c2ccccc12)NC(=O)[C@H](Cc1ccccc1)NC(=O)[C@@H](Cc1c[nH]c2ccccc12)NC(=O)[C@H](CCC(N)=O)NC(=O)[C@@H]1CCCN1)C(N)=O [compound 3, H-Pro-Gln-D-Trp-Phe-D-Trp-Leu-Met-NH2] (H-PQ[dW]F[dW]LM-NH2) | most powerful action | 69.5 ± 0.5 | substance P-antagonizing action |  |  | 
CCC(=O)N[C@@H](CCC(N)=O)C(=O)N[C@H](Cc1c[nH]c2ccccc12)C(=O)N[C@@H](Cc1ccccc1)C(=O)N[C@H](Cc1c[nH]c2ccccc12)C(=O)N[C@@H](CC(C)C)C(=O)N[C@@H](CCSC)C(N)=O [compound 4, Propionyl-Gln-D-Trp-Phe-D-Trp-Leu-Met-NH2] (Propionyl-Q[dW]F[dW]LM-NH2) | lower but significant inhibiting action | 29.3 ± 9.5 | substance P-antagonizing action |  |  | 
D-Pro^2, D-Phe^7 and D-Trp-^9 -SP |  |  |  | inhibit | inhibit | inhibit
